From PubChem BioAssay AID330 (DTP/NCI, 2004)
“And” between values parts separate entries of the source, which are not always exact repeats. Equal entries are not always repeated. Toxic doses and inconclusive results are not listed. The calls were made as follows: active = survival T/C of 150% or more; inactive = T/C below 125% in these data.

Tested on: P388 leukemia ip, CD2F1 mice, survival T/C
Test: NCI In Vivo Anticancer Drug Screen. Data for tumor model P388 Leukemia (intraperitoneal) in CD2F1 (CDF1) mice
Settings: endpoint: median survival time, higher = longer survival
Method in brief: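 Mice carrying the transplanted tumor received test compound or vehicle. Survival was recorded in each group, and the value is the treated-group measurement divided by that of the vehicle-treated control group.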

[1] = dose: 50.0 mg/kg/injection, schedule: Q01DX005 (ip), vehicle: Klucel (hydroxypropylcellulose) (HPC)
[2] = dose: 100.0 mg/kg/injection, schedule: Q01DX005 (ip), vehicle: Klucel (hydroxypropylcellulose) (HPC)
[3] = dose: 200.0 mg/kg/injection, schedule: Q01DX005 (ip), vehicle: Klucel (hydroxypropylcellulose) (HPC)
[4] = dose: 60.0 mg/kg/injection, schedule: Q01DX005 (ip), vehicle: Klucel (hydroxypropylcellulose) (HPC)
[5] = dose: 120.0 mg/kg/injection, schedule: Q01DX005 (ip), vehicle: Klucel (hydroxypropylcellulose) (HPC)
[6] = dose: 240.0 mg/kg/injection, schedule: Q01DX005 (ip), vehicle: Klucel (hydroxypropylcellulose) (HPC)
[7] = dose: 50.0 mg/kg/injection, schedule: Q01DX009 (ip), vehicle: Klucel (hydroxypropylcellulose) (HPC)
[8] = dose: 100.0 mg/kg/injection, schedule: Q01DX009 (ip), vehicle: Klucel (hydroxypropylcellulose) (HPC)
[9] = dose: 200.0 mg/kg/injection, schedule: Q01DX009 (ip), vehicle: Klucel (hydroxypropylcellulose) (HPC)
[10] = dose: 100.0 mg/kg/injection, schedule: Q04DX003 (ip), vehicle: saline with Tween-80
[11] = dose: 200.0 mg/kg/injection, schedule: Q04DX003 (ip), vehicle: saline with Tween-80
[12] = dose: 50.0 mg/kg/injection, schedule: Q01DX009 (ip), vehicle: saline with Tween-80
[13] = dose: 100.0 mg/kg/injection, schedule: Q01DX009 (ip), vehicle: saline with Tween-80
[14] = dose: 200.0 mg/kg/injection, schedule: Q01DX009 (ip), vehicle: saline with Tween-80

Measured: T/C

CCCCCCCC(=O)Nc1cc2c3c(c1)CCC(=O)N3CCC2
inactive: [1] 100 % of control | [2] 100 % of control | [3] 98 % of control

COC(=O)c1[nH]c(=O)c(C#N)c(C(=O)OC)c1C(=O)c1ccc2ccccc2c1
inactive: [4] 90 % of control | [5] 88 % of control | [6] 97 % of control

CCCCc1c(O)c2c(=O)[nH]c(C)nc2oc1=O
inactive: dose: 3.75 mg/kg/injection, schedule: Q01DX005 (ip), vehicle: Klucel (hydroxypropylcellulose) (HPC) 96 % of control | dose: 7.5 mg/kg/injection, schedule: Q01DX005 (ip), vehicle: Klucel (hydroxypropylcellulose) (HPC) 95 % of control | dose: 15.0 mg/kg/injection, schedule: Q01DX005 (ip), vehicle: Klucel (hydroxypropylcellulose) (HPC) 92 % of control

CN(C)C(=S)S
inactive: [7] 102 % of control | [8] 100 % of control | [9] 105 % of control | dose: 400.0 mg/kg/injection, schedule: Q01DX009 (ip), vehicle: Klucel (hydroxypropylcellulose) (HPC) 114 % of control

CCN(C)c1cc2c3c(c1)CCCN3CCC2
inactive: dose: 1.25 mg/kg/injection, schedule: Q01DX009 (ip), vehicle: saline 113 % of control | dose: 1.25 mg/kg/injection, schedule: Q04DX003 (ip), vehicle: saline 100 % of control | dose: 2.5 mg/kg/injection, schedule: Q01DX009 (ip), vehicle: saline 109 % of control | dose: 2.5 mg/kg/injection, schedule: Q04DX003 (ip), vehicle: saline 95 % of control | dose: 5.0 mg/kg/injection, schedule: Q01DX009 (ip), vehicle: saline 104 % of control | dose: 5.0 mg/kg/injection, schedule: Q04DX003 (ip), vehicle: saline 109 % of control

COC(=O)CCC#N
inactive: dose: 100.0 mg/kg/injection, schedule: Q01DX009 (ip), vehicle: saline 97 % of control | dose: 200.0 mg/kg/injection, schedule: Q01DX009 (ip), vehicle: saline 109 % of control | dose: 400.0 mg/kg/injection, schedule: Q01DX009 (ip), vehicle: saline 107 % of control

C[C@H]1C(=O)CCC2[C@]3(C)CC4OC(=O)C5(CC[C@@]6(C)CCC(C)(C)CC6C45C)C3CC[C@@]21C (stereo partly specified)
inactive: dose: 8.25 mg/kg/injection, schedule: Q01DX005 (ip), vehicle: Klucel (hydroxypropylcellulose) (HPC) 93 % of control

CCOC(=O)C1(n2[nH]c(=O)n(-c3ccccc3)c2=O)CC(C)OC1=O (stereo unspecified)
inactive: [7] 94 % of control | [8] 91 % of control | [9] 91 % of control

CC1(C)CC(NCc2ccccc2)=CC(=S)N1
inactive: [1] 100 % of control | [2] 103 % of control | [3] 93 % of control

CC(C)C(NC(=O)C(C)N(C)C)C(=O)N1CCC2Oc3ccc(cc3)/C=C\NC(=O)C(Cc3ccccc3)NC(=O)C21 (stereo unspecified)
inactive: [10] 97 % of control | [11] 95 % of control | dose: 400.0 mg/kg/injection, schedule: Q04DX003 (ip), vehicle: saline with Tween-80 96 % of control

O=C1NC(=O)C2(CCC(O)C2)c2ccncc21 (stereo unspecified)
inactive: dose: 0.12 mg/kg/injection, schedule: Q01DX009 (ip), vehicle: saline + Tween-80 + alcohol 103 % of control | dose: 0.25 mg/kg/injection, schedule: Q01DX009 (ip), vehicle: saline + Tween-80 + alcohol 100 % of control | dose: 0.5 mg/kg/injection, schedule: Q01DX009 (ip), vehicle: saline + Tween-80 + alcohol 103 % of control | dose: 1.0 mg/kg/injection, schedule: Q01DX009 (ip), vehicle: saline + Tween-80 + alcohol 100 % of control and 120 % of control | dose: 1.4 mg/kg/injection, schedule: Q01DX009 (ip), vehicle: saline + Tween-80 + alcohol 117 % of control

Cc1cc(C)nc(N/N=C\c2c(Cl)cccc2Cl)n1
inactive: dose: 50.0 mg/kg/injection, schedule: Q04DX003 (ip), vehicle: Klucel (hydroxypropylcellulose) (HPC) 100 % of control | dose: 100.0 mg/kg/injection, schedule: Q04DX003 (ip), vehicle: Klucel (hydroxypropylcellulose) (HPC) 98 % of control | dose: 200.0 mg/kg/injection, schedule: Q04DX003 (ip), vehicle: Klucel (hydroxypropylcellulose) (HPC) 94 % of control

CC1(C)CCCc2conc21
inactive: [12] 96 % of control | [13] 101 % of control | [14] 96 % of control

Oc1ccc(O)cc1
inactive: dose: 12.5 mg/kg/injection, schedule: Q01DX009 (ip), vehicle: saline with Tween-80 106 % of control | dose: 25.0 mg/kg/injection, schedule: Q01DX009 (ip), vehicle: saline with Tween-80 113 % of control | [12] 122 % of control
active: [13] 150 % of control

C=C1C(C2=[N+]([O-])CCN2O)OC2OC(C)(C)OC12 (stereo unspecified)
inactive: [4] 93 % of control | [5] 101 % of control | [6] 101 % of control

O=[N+]([O-])c1cc2[nH]cnc2c([N+](=O)[O-])c1NCCO
inactive: [12] 110 % of control | [13] 108 % of control | [14] 94 % of control

COC(C)(C)[CH]([Hg][Cl])n1ccccc1=O (stereo unspecified)
inactive: dose: 6.25 mg/kg/injection, schedule: Q04DX003 (ip), vehicle: Klucel (hydroxypropylcellulose) (HPC) 100 % of control | dose: 12.5 mg/kg/injection, schedule: Q04DX003 (ip), vehicle: Klucel (hydroxypropylcellulose) (HPC) 93 % of control | dose: 25.0 mg/kg/injection, schedule: Q04DX003 (ip), vehicle: Klucel (hydroxypropylcellulose) (HPC) 99 % of control and 100 % of control

C=C(C)CC1(CC)C(=O)NC(=S)NC1=O
inactive: dose: 50.0 mg/kg/injection, schedule: Q04DX003 (ip), vehicle: saline with Tween-80 104 % of control | [10] 104 % of control | [11] 86 % of control

C=C(C)C1(C(=O)OCC(Cl)(Cl)Cl)NC(=O)C(NC(=O)COc2ccccc2)=CO1 (stereo unspecified)
inactive: dose: 50.0 mg/kg/injection, schedule: Q01DX005 (ip), vehicle: saline with Tween-80 99 % of control | dose: 100.0 mg/kg/injection, schedule: Q01DX005 (ip), vehicle: saline with Tween-80 88 % of control | dose: 200.0 mg/kg/injection, schedule: Q01DX005 (ip), vehicle: saline with Tween-80 95 % of control

COc1cc(CC2c3cc(OC)c(OC)cc3CCN2C)c(Oc2cc3c(cc2OC)-c2c(OC)c(OC)c(OC)c4c2C(C3)N(C)CC4)cc1OC (stereo unspecified)
inactive: dose: 37.5 mg/kg/injection, schedule: Q01DX009 (ip), vehicle: Klucel (hydroxypropylcellulose) (HPC) 102 % of control | dose: 75.0 mg/kg/injection, schedule: Q01DX009 (ip), vehicle: Klucel (hydroxypropylcellulose) (HPC) 88 % of control | dose: 150.0 mg/kg/injection, schedule: Q01DX009 (ip), vehicle: Klucel (hydroxypropylcellulose) (HPC) 94 % of control

Clc1ccc(-c2nnc3ncccn23)cc1
inactive: dose: 100.0 mg/kg/injection, schedule: Q01DX001 (ip), vehicle: saline with Tween-80 96 % of control | dose: 200.0 mg/kg/injection, schedule: Q01DX001 (ip), vehicle: saline with Tween-80 105 % of control

CC1(C)CC(C)(OC(=O)c2ccc([N+](=O)[O-])cc2)[N+]([O-])=N1 (stereo unspecified)
inactive: dose: 12.5 mg/kg/injection, schedule: Q01DX009 (ip), vehicle: other 96 % of control | dose: 25.0 mg/kg/injection, schedule: Q01DX009 (ip), vehicle: other 100 % of control | dose: 50.0 mg/kg/injection, schedule: Q01DX009 (ip), vehicle: other 95 % of control | dose: 100.0 mg/kg/injection, schedule: Q01DX009 (ip), vehicle: other 94 % of control | dose: 200.0 mg/kg/injection, schedule: Q01DX009 (ip), vehicle: other 88 % of control

O=C1CC(c2ccc(OCN(CCCl)CCCl)cc2)CC(=O)C1CN(CCCl)CCCl (stereo unspecified)
inactive: dose: 2.0 mg/kg/injection, schedule: Q01DX009 (ip), vehicle: Klucel (hydroxypropylcellulose) (HPC) 117 % of control
active: dose: 4.0 mg/kg/injection, schedule: Q01DX009 (ip), vehicle: Klucel (hydroxypropylcellulose) (HPC) 160 % of control | dose: 8.0 mg/kg/injection, schedule: Q01DX009 (ip), vehicle: Klucel (hydroxypropylcellulose) (HPC) 153 % of control | dose: 16.0 mg/kg/injection, schedule: Q01DX009 (ip), vehicle: Klucel (hydroxypropylcellulose) (HPC) 166 % of control and 173 % of control | dose: 32.0 mg/kg/injection, schedule: Q01DX009 (ip), vehicle: Klucel (hydroxypropylcellulose) (HPC) 190 % of control

CCn1c(=N)sc2nc3ccccc3n2c1=O
inactive: [4] 103 % of control | [5] 103 % of control

CC(C)=CC[P+](CC[P+](CC=C(C)C)(c1ccccc1)c1ccccc1)(c1ccccc1)c1ccccc1
inactive: dose: 6.25 mg/kg/injection, schedule: Q01DX005 (ip), vehicle: saline with Tween-80 98 % of control | dose: 12.5 mg/kg/injection, schedule: Q01DX005 (ip), vehicle: saline with Tween-80 98 % of control
